These results are taken from patent US20070049593A1 (priority 2004, published 2007).

What is called IC50 is the concentration at which inhibition is half-maximal.

Where a name gives a salt, the structure may show the parent alone.

T1 sequence (P26663 2420-2963): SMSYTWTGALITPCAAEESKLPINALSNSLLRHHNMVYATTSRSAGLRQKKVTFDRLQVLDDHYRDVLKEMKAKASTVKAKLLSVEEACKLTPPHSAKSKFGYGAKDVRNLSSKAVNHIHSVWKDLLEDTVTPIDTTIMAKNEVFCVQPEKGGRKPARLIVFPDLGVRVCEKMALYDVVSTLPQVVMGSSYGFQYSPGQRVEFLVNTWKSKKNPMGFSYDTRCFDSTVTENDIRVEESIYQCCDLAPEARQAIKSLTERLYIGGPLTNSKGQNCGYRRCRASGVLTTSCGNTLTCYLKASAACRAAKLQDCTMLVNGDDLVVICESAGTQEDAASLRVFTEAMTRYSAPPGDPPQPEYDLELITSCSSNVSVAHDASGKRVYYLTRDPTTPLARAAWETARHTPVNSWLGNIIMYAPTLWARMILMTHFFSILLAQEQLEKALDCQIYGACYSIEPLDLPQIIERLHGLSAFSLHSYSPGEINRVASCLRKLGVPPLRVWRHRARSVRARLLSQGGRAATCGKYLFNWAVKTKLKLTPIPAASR

One assay addresses T1, HCV polymerase (Hepatitis C virus genotype 1b, UniProt P26663).
T1 construct: a region encoding NS5B (J Virol 1991 March, 65(3), 1105-13, 544 amino acids after deletion of 47 amino acids on the C-terminal); 6xHis (C); made in house; host or cells: Escherichia coli
Put plainly: biochemical. Also on record: species or system HCV BK strain.
Conditions: not given
An outline of the steps: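 His-tagged NS5B (BK strain, 47-aa C-terminal deletion, E. coli-expressed) at 0.5 μg/ml copied 5 μg/ml run-off RNA bearing the HCV 3′ UTR with 2 μM UTP plus [3H]UTP, 50 μM ATP/GTP, in pH 7.5 Tris with 5 mM MgCl2, 25 °C, 90 min. TCA-precipitated RNA was counted and IC50 calculated.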
Compound `O=C(N[C@H](Cc1ccc(O)cc1)C(=O)O)c1ccc2c(C3CCCCC3)c3n(c2c1)CCOc1ccccc1-3` [Example 2-246, (R)-2-[(12-cyclohexyl-6,7-dihydro-5-oxa-7a-azadibenzo[a,e]azulene-9-carbonyl)amino]-3-(4-hydroxyphenyl)propionic acid] displayed a 50% inhibitory concentration (IC50) of under 100 nM. The same measure, in the same setting: the figure for `O=C(O)CN1CCC(NC(=O)c2ccc3c(C4CCCCC4)c4n(c3c2)CCOc2ccccc2-4)(c2nc3ccccc3[nH]2)CC1` [Example 2-247, {4-(1H-benzimidazol-2-yl)-4-[(12-cyclohexyl-6,7-dihydro-5-oxa-7a-azadibenzo[a,e]azulene-9-carbonyl)amino]piperidin-1-yl}acetic acid] is under 100 nM; for `COC(=O)CN1CCC(NC(=O)c2ccc3c(C4CCCCC4)c4n(c3c2)CCOc2ccccc2-4)(c2nc3ccccc3[nH]2)CC1` [Example 2-248, methyl (4-(1H-benzimidazol-2-yl)-4-[(12-cyclohexyl-6,7-dihydro-5-oxa-7a-azadibenzo[a,e]azulene-9-carbonyl)amino]piperidin-1-yl]acetate monohydrochloride] it is under 100 nM; for `Cn1c(CNC(=O)c2ccc3c(C4CCCCC4)c4n(c3c2)CCOc2ccccc2-4)nc2ccccc21` [Example 2-249, N-(1-methyl-1H-benzimidazol-2-ylmethyl)-12-cyclohexyl-6,7-dihydro-5-oxa-7a-azadibenzo[a,e]azulene-9-carboxamide] it is under 100 nM. Same read-out and setting: in the case of `O=C(O)Cn1c(CNC(=O)c2ccc3c(C4CCCCC4)c4n(c3c2)CCOc2ccccc2-4)nc2ccccc21` [Example 2-250, (2-{[(12-cyclohexyl-6,7-dihydro-5-oxa-7a-azadibenzo[a,e]azulene-9-carbonyl)amino]methyl}benzimidazol-1-yl)acetic acid] it was under 100 nM; in that of `COC(=O)Cn1c(CNC(=O)c2ccc3c(C4CCCCC4)c4n(c3c2)CCOc2ccccc2-4)nc2ccccc21` [Example 2-251, methyl (2-{[(12-cyclohexyl-6,7-dihydro-5-oxa-7a-azadibenzo[a,e]azulene-9-carbonyl)amino]methyl}benzimidazol-1-yl)acetate], under 100 nM; in that of `O=C(NCc1nc2ccccc2[nH]1)c1ccc2c(C3CCCCC3)c3n(c2c1)CCOc1ccccc1-3` [Example 2-252, N-(1H-benzimidazol-2-ylmethyl)-12-cyclohexyl-6,7-dihydro-5-oxa-7a-azadibenzo[a,e]azulene-9-carboxamide], under 100 nM. The same measure, in the same setting: in the case of `CC(C)(CN/C=C/C(=O)O)NC(=O)c1ccc2c(C3CCCCC3)c3n(c2c1)CCOc1ccccc1-3` [Example 2-254, (E)-3-{2-[(12-cyclohexyl-6,7-dihydro-5-oxa-7a-azadibenzo[a,e]azulene-9-carbonyl)amino]-2-methylpropylamino}acrylic acid] it was 100 to 1000 nM. `CC(C)(CNc1ccc(C(=O)O)cn1)NC(=O)c1ccc2c(C3CCCCC3)c3n(c2c1)CCOc1ccccc1-3` [Example 2-255, 6-{2-[(12-cyclohexyl-6,7-dihydro-5-oxa-7a-azadibenzo[a,e]azulene-9-carbonyl)amino]-2-methylpropylamino}nicotinic acid] showed a 50% inhibitory concentration (IC50) of under 100 nM. The same measure, in the same setting: in the case of `O=C(O)c1ccc2c(C3CCCCC3)c3n(c2c1)CCOc1c-3cccc1N(CCOCc1ccccc1)CCN1CCCCC1` [Example 2-256, 4-{N-(2-benzyloxyethyl)-N-[2-(piperidin-1-yl)ethyl]amino}-12-cyclohexyl-6,7-dihydro-5-oxa-7a-azadibenzo[a,e]azulene-9-carboxylic acid dihydrochloride] it was under 100 nM; in that of `CC(C)OCCN(CCN1CCCCC1)c1cccc2c1OCCn1c-2c(C2CCCCC2)c2ccc(C(=O)O)cc21` [Example 2-257, 12-cyclohexyl-4-(N-(2-isopropoxyethyl)-N-[2-(piperidin-1-yl)ethyl]amino}-6,7-dihydro-5-oxa-7a-azadibenzo[a,e]azulene-9-carboxylic acid dihydrochloride], under 100 nM. Same read-out and setting: in the case of `Cc1nc(C(C)(C)NC(=O)c2ccc3c(C4CCCCC4)c4n(c3c2)CCOc2ccccc2-4)[nH]c1C` [Example 2-258, N-[1-(4,5-dimethyl-1H-imidazol-2-yl)-1-methylethyl]-12-cyclohexyl-6,7-dihydro-5-oxa-7a-azadibenzo[a,e]azulene-9-carboxamide] it was under 100 nM; in that of `Cc1nc(C(C)(C)NC(=O)c2ccc3c(C4CCCCC4)c4n(c3c2)CCOc2ccccc2-4)n(C)c1C` [Example 2-259, N-[1-methyl-1-(1,4,5-trimethyl-1H-imidazol-2-yl)ethyl]-12-cyclohexyl-6,7-dihydro-5-oxa-7a-azadibenzo[a,e]azulene-9-carboxamide], under 100 nM. Same read-out and setting: in the case of `CC(C)(NC(=O)c1ccc2c(C3CCCCC3)c3n(c2c1)CCOc1ccccc1-3)C(=O)Nc1cccc(O)c1` [Example 2-260, N-[1-(3-hydroxyphenylcarbamoyl)-1-methylethyl]-12-cyclohexyl-6,7-dihydro-5-oxa-7a-azadibenzo[a,e]azulene-9-carboxamide] it was under 100 nM; in that of `O=C(O)c1ccc2c(C3CCCCC3)c3n(c2c1)CCOc1c-3cccc1N(CCO)CCN1CCCCC1` [Example 2-261, 12-cyclohexyl-4-{N-(2-hydroxyethyl)-N-[2-(piperidin-1-yl)ethyl]amino}-6,7-dihydro-5-oxa-7a-azadibenzo[a,e]azulene-9-carboxylic acid dihydrochloride], under 100 nM; in that of `COc1ccc2c(c1)OCCn1c-2c(C2CCCCC2)c2ccc(C(=O)N[C@@H](Cc3ccc(O)cc3)C(=O)N(C)C)cc21` [Example 2-262, N—[(S)-1-dimethylcarbamoyl-2-(4-hydroxyphenyl)ethyl]-12-cyclohexyl-3-methoxy-6,7-dihydro-5-oxa-7a-azadibenzo[a,e]azulene-9-carboxamide], under 100 nM.

In turn, `CNC(=O)[C@H](Cc1ccc(O)cc1)NC(=O)c1ccc2c(C3CCCCC3)c3n(c2c1)CCOc1cc(OC)ccc1-3` [Example 2-263, N—[(S)-2-(4-hydroxyphenyl)-1-(methylcarbamoyl)ethyl]-12-cyclohexyl-3-methoxy-6,7-dihydro-5-oxa-7a-azadibenzo[a,e]azulene-9-carboxamide] showed an IC50 of under 100 nM. Still for that read-out and setting: in the case of `COC(=O)Cn1c(C(C)(C)NC(=O)c2ccc3c(C4CCCCC4)c4n(c3c2)CCOc2ccccc2-4)nc(C)c1C` [Example 2-264, methyl (2-{1-[(12-cyclohexyl-6,7-dihydro-5-oxa-7a-azadibenzo[a,e]azulene-9-carbonyl)amino]-1-methylethyl}-4,5-dimethylimidazol-1-yl)acetate] it was under 100 nM; in that of `Cc1nc(C(C)(C)NC(=O)c2ccc3c(C4CCCCC4)c4n(c3c2)CCOc2ccccc2-4)n(CC(=O)O)c1C` [Example 2-265, (2-{1-[(12-cyclohexyl-6,7-dihydro-5-oxa-7a-azadibenzo[a,e]azulene-9-carbonyl)amino]-1-methylethyl}-4,5-dimethylimidazol-1-yl)acetic acid], 100 to 1000 nM; in that of `COC(=O)c1ccc2nc(NC(=O)c3ccc4c(C5CCCCC5)c5n(c4c3)CCOc3ccccc3-5)[nH]c2c1` [Example 2-266, methyl 2-[(12-cyclohexyl-6,7-dihydro-5-oxa-7a-azadibenzo[a,e]azulene-9-carbonyl)amino]-3H-benzimidazole-5-carboxylate], 100 to 1000 nM. Still for that read-out and setting: the figure for `O=C(Nc1nc2ccccc2[nH]1)c1ccc2c(C3CCCCC3)c3n(c2c1)CCOc1ccccc1-3` [Example 2-267, N-(1H-benzimidazol-2-yl)-12-cyclohexyl-6,7-dihydro-5-oxa-7a-azadibenzo[a,e]azulene-9-carboxamide] is 100 to 1000 nM.

The compound `O=C(O)c1ccc2nc(NC(=O)c3ccc4c(C5CCCCC5)c5n(c4c3)CCOc3ccccc3-5)[nH]c2c1` [Example 2-268, 2-[(12-cyclohexyl-6,7-dihydro-5-oxa-7a-azadibenzo[a,e]azulene-9-carbonyl)amino]-3H-benzimidazole-5-carboxylic acid] showed a 50% inhibitory concentration (IC50) of 100 to 1000 nM.

`CC(C)(NC(=O)c1ccc2c(C3CCCCC3)c3n(c2c1)CCOc1ccccc1-3)c1nc2ccc(C#N)cc2[nH]1` [Example 2-269, N-[1-(6-cyano-1H-benzimidazol-2-yl)-1-methylethyl]-12-cyclohexyl-6,7-dihydro-5-oxa-7a-azadibenzo[a,e]azulene-9-carboxamide] gave a 50% inhibitory concentration (IC50) of under 100 nM. Same read-out and setting: in the case of `COC(=O)[C@@H](NC(=O)c1ccc2c(C3CCCCC3)c3n(c2c1)CCOc1cc(OC)ccc1-3)c1ccc(O)cc1` [Example 2-270, methyl (S)-2-[(12-cyclohexyl-3-methoxy-6,7-dihydro-5-oxa-7a-azadibenzo[a,e]azulene-9-carbonyl)amino]-2-(4-hydroxyphenyl)acetate] it was under 100 nM; in that of `COC(=O)[C@H](NC(=O)c1ccc2c(C3CCCCC3)c3n(c2c1)CCOc1cc(OC)ccc1-3)c1ccc(O)cc1` [Example 2-271, methyl (R)-2-[(12-cyclohexyl-3-methoxy-6,7-dihydro-5-oxa-7a-azadibenzo[a,e]azulene-9-carbonyl)amino]-2-(4-hydroxyphenyl)acetate], under 100 nM; in that of `CCN(CCN1CCC(OC)CC1)c1cccc2c1OCCn1c-2c(C2CCCCC2)c2ccc(C(=O)O)cc21` [Example 2-272, 12-cyclohexyl-4-{N-ethyl-N-[2-(4-methoxypiperidin-1-yl)ethyl]amino}-6,7-dihydro-5-oxa-7a-azadibenzo[a,e]azulene-9-carboxylic acid dihydrochloride], under 100 nM.

Still in this assay, the particulars now being: read-out: HCV polymerase inhibitory activity IC50; 25° C., 90 min; [5,6-3H]UTP incorporation into RNA.
Consider `O=C(NC(Cc1c[nH]c2ccc(O)cc12)C(=O)O)c1ccc2c(C3CCCCC3)c3n(c2c1)CCOc1ccccc1-3` (stereo not drawn) [Example 2-253], for which the IC50 was under 100 nM.
